Results reported in patent US6248895A, “Benzofuroxan compound, method of preparation, pharmaceutical composition and method of treatment using the same” (Torrent Pharmaceuticals Ltd., priority 1998, dated 2001).

Assays:
[1] = tested on: thoracic aorta (albino rabbit, helical strips, endothelium removed); experiment: In vitro screening of NO donors: relaxation of endothelium-denuded rabbit thoracic aorta strips, before and after GTN-induced tolerance; format: cell-based; settings: relative to GTN; for Mean Relative Potency After Tolerance: after tolerance induced by 440 μM GTN for 90 min
Method: a) In vitro Screening of NO Donors
The method adopted was a modified method of Nishikawa et al (1982). Albino rabbits of either sex were stunned and exsanguinated. Thoracic aorta was quickly removed and cut helically (at an angle of […]) into strips 4-5 mm wide and 25 to 30 mm long, after removal of adventitial connective tissue. The endothelium was rubbed off gently using a cotton swab soaked in Kreb's solution. Two strips were fixed vertically in organ baths containing 20 ml. Kreb's solution maintained at 37° C. and bubbled with oxygen. A resting tension of 4 g was applied and the preparation was allowed to equilibrate for 30 min. Each preparation was exposed to two primer doses of KCl (30 mM). After the contraction reached a maximum, the bath was drained off and replaced with fresh Kreb's solution. Half an hour later, cumulative dose response curve for the test compound was taken on one tissue (test) and for glyceryl trinitrate (GTN) in the other (standard). The dose range used was from 10^-9 M to 10^-3 M with a contact period of 4 min. for each dose.
Tolerance was induced in both the tissues by adding 440 μM of GTN for 90 minutes. During this period the bath solution was changed every 30 min. and 440 μM of GTN was replaced. Later both the tissues were washed thoroughly and the dose response curve (DRC) for both the test and the standard were repeated. The percentage relaxation with individual doses was calculated by taking the maximum relaxations to 10^-4 M papaverine as 100% relaxation. A graph was plotted by taking the percentage relaxation vs the log (M) concentration of the compounds.

[2] = tested on: vasopressin induced T-wave elevation; experiment: Anti-anginal effect: suppression of vasopressin induced T-wave elevation in anesthetized guinea pigs; format: in vivo, guinea pig; settings: for Selectivity Index A/B (C): ED20 for fall in B.P. (A) / ED50 for T-wave inhibition (B); for Dose required for 50% inhibition of T-wave (ED50) (B): i.v.
Source text: b) In vivo Pharmacological Screening
A modified method of Benedini et al (1995) was adopted for studying the anti-anginal effect of the chosen compounds. Guinea pigs of either sex, weighing approximately 400-600 g were used for this study. Animals were anesthetized with urethane (1.25 g/kg, i.p.) and jugular vein was cannulated for intravenous administration of drugs/vehicle. Mean arterial blood pressure (MABP) was monitored by a cannula inserted into the right carotid artery and connected to a pressure transducer. Standard limb lead II electrocardiogram was recorded continuously. All the recordings were carried out on a MacLab system (AD Instruments, UK).
The ability of the test compounds to suppress the vasopressin induced T-wave elevation was used as the model for studying the anti-anginal effects of the compounds. Guinea pigs were divided into two groups for the purpose of this study, i) control group (pretreated with the vehicle for the compound) and ii) drug treated group.
In this group of animals the solvent used for dissolving the test compound was administered intravenously in a volume of 1 ml/kg. The basal T-wave heights, heart rates and MABP and changes after vehicle administration were noted. Thirty seconds later 1 I.U./ml/kg of vasopressin was administered intravenously. The T-wave heights, heart rates and MABP and their changes after vasopressin administration were also noted. The T-wave elevation (after vasopressin administration), maximum rise in MABP, and changes in heart rate were calculated from the above data and expressed as mean±standard deviation.
The effects of the test compound in suppressing the T-wave elevation caused by vasopressin were evaluated with atleast three dose levels. Groups of 6 guinea pigs were used for each dose. The test compound was injected 30 seconds prior to vasopressin administration. Changes in MABP, heart rate and T-waves were recorded as described for the control group. The percentage inhibition of vasopressin induced T-wave elevation was calculated for each dose taking the T-wave height estimated in control group as 100%. From the dose vs percent inhibition relationship, the dose required for 50% inhibition (ED50) for the T-wave elevation was estimated.
In a separate group of animals the drop in MABP after administration of the test compound (dose range of 0.1-1000 μg/kg, i.v.) was studied. Atleast three animals were used for each dose. Care was taken so that the doses were given only after the MABP had stabilized from the effects of the previous dose. All doses were injected in a final volume of 1 ml/kg. […] From this graph the dose required to produce a 20% fall in MABP (ED20) was calculated. The specificity of the test compound was defined by the selectivity index, which was shown below: [formula]

[3] = tested on: MABP; experiment: Drop in mean arterial blood pressure (MABP) after i.v. administration; format: in vivo, guinea pig; settings: 20% fall in MABP
Method: Guinea pigs of either sex, weighing approximately 400-600 g were used for this study. […] Standard limb lead II electrocardiogram was recorded continuously. All the recordings were carried out on a MacLab system (AD Instruments, UK).
Determination of the Ed20 Values for Drop in Mabp
Atleast three animals were used for each dose. […] All doses were injected in a final volume of 1 ml/kg. […] The specificity of the test compound was defined by the selectivity index, which was shown below: [formula]

[4] = conventional nitrates like GTN; cited from earlier work
[5] = 30 seconds prior to vasopressin 1 I.U./ml/kg

Compound	Mean Relative Potency After Tolerance [1]	Mean Relative Potency Before Tolerance [1]	Selectivity Index A/B (C) [2]	selectivity index as compared to GTN (in words) [2]	Dose required for 50% inhibition of T-wave (ED50) (B) [2, 5] [mg/kg]	Dose needed for 20% fall in B.P. (ED20) (A) [3] [mg/kg]	ED50 ([2]; Cavia porcellus, iv, 30 seconds prior to vasopressin 1 I.U./ml/kg, read-out: Dose required for 50% inhibition of T-wave (ED50) (B)) [mg/kg]	ED20 ([3]; Cavia porcellus, iv, read-out: Dose needed for 20% fall in B.P. (ED20) (A)) [mg/kg]	side effects as a manifestation of hypotensive effect [4]
COCCOC(=O)c1ccc2c(c1)no[n+]2[O-] [Compound 6, 5(6)-(2-methyloxyethyloxycarbonyl) benzofuroxan]	17.02	0.97	0.67	high selectivity index as compared to GTN	0.3379	0.22634	–	–	–
O=C(OCCN1CCCC1=O)c1ccc2c(c1)no[n+]2[O-] [Compound 3, 5(6)-(2-pyrolidinone ethyloxycarbonyl) benzofuroxan]	25	0.11	0.152	–	0.67561	0.13952	–	–	–
CC1(C)OCC(COC(=O)c2ccc3c(c2)no[n+]3[O-])O1 (racemic) [Compound 10, 5(6)-((±)-2,2-dimethyl-1,3-dioxolane-4-methyloxycarbonyl) benzofuroxan]	10.13	0.39	0.58	high selectivity index as compared to GTN	0.492	0.286	–	–	–
O=C(OCC(O)CO)c1ccc2c(c1)no[n+]2[O-] (stereo not drawn) [Compound 7, 5(6)-(2,3-dihydroxypropyloxycarbonyl) benzofuroxan]	3.49	0.17	–	–	–	–	–	–	–
O=C(OCCN1CCOCC1)c1ccc2c(c1)no[n+]2[O-] [Compound 5, 5(6)-(2-morpholinoethyloxycarbonyl)benzofuroxan]	4.12	0.18	–	–	–	–	–	–	–
CCOCCOC(=O)c1ccc2c(c1)no[n+]2[O-] [Compound 8, 5(6)-(2-ethoxyethyloxycarbonyl) benzofuroxan]	11.9	0.2	–	–	–	–	–	–	–
O=C(OC1COC2C(O[N+](=O)[O-])COC12)c1ccc2c(c1)no[n+]2[O-] (stereo not drawn) [Compound 11, 5(6)-(isosorbide mononitrateoxy carbonyl) benzofuroxan]	7	0.25	–	–	–	–	–	–	–
O=C(NCCOC(=O)c1ccc2c(c1)no[n+]2[O-])c1ccncc1 [Compound 2, 5(6)-(2-isonicotinamideethyloxycarbonyl)benzofuroxan]	6.94	0.06	–	–	–	–	–	–	–
O=[N+]([O-])OCC(CO[N+](=O)[O-])O[N+](=O)[O-] [GTN, glyceryl trinitrate, reference compound]	–	–	~0.017	–	–	–	0.474	0.00822	tachycardia, retrosternal discomfort, palpitations, collapse, syncope and postural hypotension
5(6)-(2-nicotinamide ethyloxycarbonyl) benzofuroxan hydrochloride [Compound 1]	8.4	0.2	0.517	high selectivity index as compared to GTN	0.88642	0.45802	–	–	–
O=C(OCc1cccnc1)c1ccc2c(c1)no[n+]2[O-] [Compound 9, 5(6)-(3-pyridinemethoxycarbonyl) benzofuroxan]	8.05	0.53	0.61	high selectivity index as compared to GTN	0.37285	0.22716	–	–	–
CC(O)COC(=O)c1ccc2c(c1)no[n+]2[O-] (stereo not drawn) [Compound 4, 5(6)-(2-hydroxypropyloxycarbonyl) benzofuroxan]	11.22	0.28	–	–	–	–	–	–	–
